Where no end group is shown, it is not given here.
Tests used:
recombinant human GzmB = biological target: T1, recombinant human GzmB (Homo sapiens, UniProt P10144); assay: Kinetic measurements (Michaelis-Menten) with recombinant hGzmB; assay type: biochemical; design: cleavage rate of H5 by hGzmB: unit not given here
T1 construct: For active GzmB vs pro-GzmB, p < 0.0001
Method: Fluorescence-based assays with different enzymes were performed in the appropriate buffers. […] In experiments with Ac-IEPD-CHO (50 μM), the inhibitor was preincubated for 1 h with GzmB before the addition of any probe.
Supplementary Table 4. Kinetic values determined for hexapeptides H2-H5 against
Probe Sequence kcat kcat / KM

E0771 cells = assay: Flow cytometry of E0771 cells in co-culture with CD8+ T cells; assay type: cell-based, mouse; conditions: H5 5 μM
Method: Treatments with staurosporine (1 μM) were for 1 h. […]
mouse CD8+ T cells and mKate-E0771 cells. b) Representative flow cytometry contour plots of E0771 cells in: left) co-cultures of E0771 cells (50,000 cells well-1) and activated […]
cells well-1), right) E0771 alone cells treated with staurosporine (1 µM, 1 h). c) Representative flow cytometry contour plots of CD8+ T cells in: left) co-cultures of E0771 […]
2 h) murine CD8+ T cells (200,000 cells well -1). All cultures in b) and c) were equally […]
with and without preincubation of the GzmB inhibitor Ac -IEPD-CHO. Data presented as […]
633/670 nm (for AF647-Annexin V). Representative plots from independent experiments performed in triplicate. Source data in d provided as a Source Data file.

OVA-EL4 cancer cells = assay: Time-course flow cytometry of OVA-EL4 cancer cells with OT-I CD8+ T cells; assay type: cell-based; design: unit not given here; conditions: H5 10 μM, Sytox Blue 1 μM
Source text: Legends: viable (gray), H5-stained (green), apoptotic (red). […] Black arrows highlight T cells, yellow arrows highlight H5-stained intracellular GzmB puncta. […] Scale bar: 10 μm. f Flow cytometric analysis of OVA-EL4 cancer cells from experiments in e. Data as means ± SEM (n = 3). P-values from two-tailed t-tests. Source data (c, f) provided as a Source Data file.
We utilized CD8+ T cells expressing the OT-I transgenic receptor, which specifically targets cells presenting the OVA-derived […] antigen in the context of H-2kb and co-cultured them with […]-pulsed EL4 cancer cells (Fig. S11). T cells were counterstained with Cell Tracker Orange for ease of identification and incubated with probe H5 and the cell death marker Sytox Blue before time-lapse microscopy.

[1] = hGzmB 20 nM, 37 °C, Michaelis-Menten, n = 3

T1 sequence (P10144 21-247): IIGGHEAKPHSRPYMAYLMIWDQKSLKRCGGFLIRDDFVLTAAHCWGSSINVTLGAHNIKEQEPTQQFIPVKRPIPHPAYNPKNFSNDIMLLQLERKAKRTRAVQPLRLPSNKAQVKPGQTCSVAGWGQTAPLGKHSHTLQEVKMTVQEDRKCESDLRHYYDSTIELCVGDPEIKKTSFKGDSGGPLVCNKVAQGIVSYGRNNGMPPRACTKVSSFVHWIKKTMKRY

IEPDAL [H5, FRET hexapeptide IEPDAL with BODIPY-FL fluorophore at the N-terminal end and Dabcyl quencher]
kcat (recombinant human GzmB; Supplementary Table 4, recombinant human GzmB): 117 s⁻¹
Km (recombinant human GzmB; [1]): 9.6 µM
kcat (recombinant human GzmB; [1]): 117 s⁻¹
cleavage rate of H5 by hGzmB (recombinant human GzmB; hGzmB 20 nM, [H5] 1 uM, Data 1): 8.4
cleavage rate of H5 by hGzmB (recombinant human GzmB; hGzmB 20 nM, [H5] 1 uM, Data 2): 5.5
cleavage rate of H5 by hGzmB (recombinant human GzmB; hGzmB 20 nM, [H5] 1 uM, Data 3): 6.0
cleavage rate of H5 by hGzmB (recombinant human GzmB; hGzmB 20 nM, [H5] 5 uM, Data 1): 48.9
cleavage rate of H5 by hGzmB (recombinant human GzmB; hGzmB 20 nM, [H5] 5 uM, Data 2): 44.9
cleavage rate of H5 by hGzmB (recombinant human GzmB; hGzmB 20 nM, [H5] 5 uM, Data 3): 43.3
cleavage rate of H5 by hGzmB (recombinant human GzmB; hGzmB 20 nM, [H5] 7.5 uM, Data 1): 58.5
cleavage rate of H5 by hGzmB (recombinant human GzmB; hGzmB 20 nM, [H5] 7.5 uM, Data 2): 69.9
cleavage rate of H5 by hGzmB (recombinant human GzmB; hGzmB 20 nM, [H5] 7.5 uM, Data 3): 72.5
cleavage rate of H5 by hGzmB (recombinant human GzmB; hGzmB 20 nM, [H5] 10 uM, Data 1): 75.6
cleavage rate of H5 by hGzmB (recombinant human GzmB; hGzmB 20 nM, [H5] 10 uM, Data 2): 81.3
cleavage rate of H5 by hGzmB (recombinant human GzmB; hGzmB 20 nM, [H5] 10 uM, Data 3): 63.2
cleavage rate of H5 by hGzmB (recombinant human GzmB; hGzmB 20 nM, [H5] 12.5 uM, Data 1): 89.7
cleavage rate of H5 by hGzmB (recombinant human GzmB; hGzmB 20 nM, [H5] 12.5 uM, Data 2): 89.4
cleavage rate of H5 by hGzmB (recombinant human GzmB; hGzmB 20 nM, [H5] 12.5 uM, Data 3): 82.2
cleavage rate of H5 by hGzmB (recombinant human GzmB; hGzmB 20 nM, [H5] 15 uM, Data 1): 88.0
cleavage rate of H5 by hGzmB (recombinant human GzmB; hGzmB 20 nM, [H5] 15 uM, Data 2): 88.2
cleavage rate of H5 by hGzmB (recombinant human GzmB; hGzmB 20 nM, [H5] 15 uM, Data 3): 73.1
cleavage rate of H5 by hGzmB (recombinant human GzmB; hGzmB 20 nM, [H5] 17.5 uM, Data 1): 82.4
cleavage rate of H5 by hGzmB (recombinant human GzmB; hGzmB 20 nM, [H5] 17.5 uM, Data 2): 92.3
cleavage rate of H5 by hGzmB (recombinant human GzmB; hGzmB 20 nM, [H5] 17.5 uM, Data 3): 81.2
cleavage rate of H5 by hGzmB (recombinant human GzmB; hGzmB 20 nM, [H5] 20 uM, Data 1): 100.4
cleavage rate of H5 by hGzmB (recombinant human GzmB; hGzmB 20 nM, [H5] 20 uM, Data 2): 99.8
cleavage rate of H5 by hGzmB (recombinant human GzmB; hGzmB 20 nM, [H5] 20 uM, Data 3): 89.3
cancer cells double-stained with H5 and Annexin V-AF647 (E0771 cells; E0771-La2-NLR cells cultured with activated T cells): over 80%
H5 +ve E0771 cells (E0771 cells; E0771 alone, staurosporine 1 μM, 1 h, replicate 1): 2.3%
H5 +ve E0771 cells (E0771 cells; E0771 alone, staurosporine 1 μM, 1 h, replicate 2): 1.69%
H5 +ve E0771 cells (E0771 cells; E0771 alone, staurosporine 1 μM, 1 h, replicate 3): 2.6%
H5 +ve E0771 cells (E0771 cells; co-culture with active CD8+ T cells (24 h IL-2), replicate 1): 79%
H5 +ve E0771 cells (E0771 cells; co-culture with active CD8+ T cells (24 h IL-2), replicate 2): 80%
H5 +ve E0771 cells (E0771 cells; co-culture with active CD8+ T cells (24 h IL-2), replicate 3): 76%
H5 +ve E0771 cells (E0771 cells; co-culture with inactive CD8+ T cells (2 h IL-2), replicate 1): 17%
H5 +ve E0771 cells (E0771 cells; co-culture with inactive CD8+ T cells (2 h IL-2), replicate 2): 18%
H5 +ve E0771 cells (E0771 cells; co-culture with inactive CD8+ T cells (2 h IL-2), replicate 3): 27%
H5+DAPI+ OVA-EL4 cancer cells (OVA-EL4 cancer cells; 0 h, Data 1): 0.47
H5+DAPI- OVA-EL4 cancer cells (OVA-EL4 cancer cells; 0 h, Data 1): 1.17
H5-DAPI+ OVA-EL4 cancer cells (OVA-EL4 cancer cells; 0 h, Data 1): 0.04
H5+DAPI+ OVA-EL4 cancer cells (OVA-EL4 cancer cells; 0 h, Data 2): 0.46
H5+DAPI- OVA-EL4 cancer cells (OVA-EL4 cancer cells; 0 h, Data 2): 0.35
H5-DAPI+ OVA-EL4 cancer cells (OVA-EL4 cancer cells; 0 h, Data 2): 0.011
H5+DAPI+ OVA-EL4 cancer cells (OVA-EL4 cancer cells; 0 h, Data 3): 0.43
H5+DAPI- OVA-EL4 cancer cells (OVA-EL4 cancer cells; 0 h, Data 3): 0.23
H5-DAPI+ OVA-EL4 cancer cells (OVA-EL4 cancer cells; 0 h, Data 3): 0.00
H5+DAPI+ OVA-EL4 cancer cells (OVA-EL4 cancer cells; 1 h, Data 1): 0.60
H5+DAPI- OVA-EL4 cancer cells (OVA-EL4 cancer cells; 1 h, Data 1): 1.57
H5-DAPI+ OVA-EL4 cancer cells (OVA-EL4 cancer cells; 1 h, Data 1): 0.03
H5+DAPI+ OVA-EL4 cancer cells (OVA-EL4 cancer cells; 1 h, Data 2): 0.80
H5+DAPI- OVA-EL4 cancer cells (OVA-EL4 cancer cells; 1 h, Data 2): 1.83
H5-DAPI+ OVA-EL4 cancer cells (OVA-EL4 cancer cells; 1 h, Data 2): 0.053
H5+DAPI+ OVA-EL4 cancer cells (OVA-EL4 cancer cells; 1 h, Data 3): 0.49
H5+DAPI- OVA-EL4 cancer cells (OVA-EL4 cancer cells; 1 h, Data 3): 1.53
H5-DAPI+ OVA-EL4 cancer cells (OVA-EL4 cancer cells; 1 h, Data 3): 0.026
H5+DAPI+ OVA-EL4 cancer cells (OVA-EL4 cancer cells; 2 h, Data 1): 0.82
H5+DAPI- OVA-EL4 cancer cells (OVA-EL4 cancer cells; 2 h, Data 1): 3.01
H5-DAPI+ OVA-EL4 cancer cells (OVA-EL4 cancer cells; 2 h, Data 1): 0.047
H5+DAPI+ OVA-EL4 cancer cells (OVA-EL4 cancer cells; 2 h, Data 2): 0.66
H5+DAPI- OVA-EL4 cancer cells (OVA-EL4 cancer cells; 2 h, Data 2): 2.90
H5-DAPI+ OVA-EL4 cancer cells (OVA-EL4 cancer cells; 2 h, Data 2): 0.06
H5+DAPI+ OVA-EL4 cancer cells (OVA-EL4 cancer cells; 2 h, Data 3): 0.58
H5+DAPI- OVA-EL4 cancer cells (OVA-EL4 cancer cells; 2 h, Data 3): 2.81
H5-DAPI+ OVA-EL4 cancer cells (OVA-EL4 cancer cells; 2 h, Data 3): 0.038
H5+DAPI+ OVA-EL4 cancer cells (OVA-EL4 cancer cells; 3 h, Data 1): 2.18
H5+DAPI- OVA-EL4 cancer cells (OVA-EL4 cancer cells; 3 h, Data 1): 2.12
H5-DAPI+ OVA-EL4 cancer cells (OVA-EL4 cancer cells; 3 h, Data 1): 0.05
H5+DAPI+ OVA-EL4 cancer cells (OVA-EL4 cancer cells; 3 h, Data 2): 1.34
H5+DAPI- OVA-EL4 cancer cells (OVA-EL4 cancer cells; 3 h, Data 2): 2.16
H5-DAPI+ OVA-EL4 cancer cells (OVA-EL4 cancer cells; 3 h, Data 2): 0.07
H5+DAPI+ OVA-EL4 cancer cells (OVA-EL4 cancer cells; 3 h, Data 3): 1.51
H5+DAPI- OVA-EL4 cancer cells (OVA-EL4 cancer cells; 3 h, Data 3): 1.83
H5-DAPI+ OVA-EL4 cancer cells (OVA-EL4 cancer cells; 3 h, Data 3): 0.06
H5+DAPI+ OVA-EL4 cancer cells (OVA-EL4 cancer cells; 4 h, Data 1): 3.60
H5+DAPI- OVA-EL4 cancer cells (OVA-EL4 cancer cells; 4 h, Data 1): 0.63
H5-DAPI+ OVA-EL4 cancer cells (OVA-EL4 cancer cells; 4 h, Data 1): 0.09
H5+DAPI+ OVA-EL4 cancer cells (OVA-EL4 cancer cells; 4 h, Data 2): 3.55
H5+DAPI- OVA-EL4 cancer cells (OVA-EL4 cancer cells; 4 h, Data 2): 0.46
H5-DAPI+ OVA-EL4 cancer cells (OVA-EL4 cancer cells; 4 h, Data 2): 0.05
H5+DAPI+ OVA-EL4 cancer cells (OVA-EL4 cancer cells; 4 h, Data 3): 2.80
H5+DAPI- OVA-EL4 cancer cells (OVA-EL4 cancer cells; 4 h, Data 3): 0.60
H5-DAPI+ OVA-EL4 cancer cells (OVA-EL4 cancer cells; 4 h, Data 3): 0.026
H5+DAPI+ OVA-EL4 cancer cells (OVA-EL4 cancer cells; 5 h, Data 1): 8.18
H5+DAPI- OVA-EL4 cancer cells (OVA-EL4 cancer cells; 5 h, Data 1): 0.17
H5-DAPI+ OVA-EL4 cancer cells (OVA-EL4 cancer cells; 5 h, Data 1): 0.053
H5+DAPI+ OVA-EL4 cancer cells (OVA-EL4 cancer cells; 5 h, Data 2): 8.22
H5+DAPI- OVA-EL4 cancer cells (OVA-EL4 cancer cells; 5 h, Data 2): 0.12
H5-DAPI+ OVA-EL4 cancer cells (OVA-EL4 cancer cells; 5 h, Data 2): 0.10
H5+DAPI+ OVA-EL4 cancer cells (OVA-EL4 cancer cells; 5 h, Data 3): 16.90
H5+DAPI- OVA-EL4 cancer cells (OVA-EL4 cancer cells; 5 h, Data 3): 0.10
H5-DAPI+ OVA-EL4 cancer cells (OVA-EL4 cancer cells; 5 h, Data 3): 0.14
H5+DAPI+ OVA-EL4 cancer cells (OVA-EL4 cancer cells; 6 h, Data 1): 11.60
H5+DAPI- OVA-EL4 cancer cells (OVA-EL4 cancer cells; 6 h, Data 1): 0.09
H5-DAPI+ OVA-EL4 cancer cells (OVA-EL4 cancer cells; 6 h, Data 1): 0.10
H5+DAPI+ OVA-EL4 cancer cells (OVA-EL4 cancer cells; 6 h, Data 2): 10.50
H5+DAPI- OVA-EL4 cancer cells (OVA-EL4 cancer cells; 6 h, Data 2): 0.11
H5-DAPI+ OVA-EL4 cancer cells (OVA-EL4 cancer cells; 6 h, Data 2): 0.10
H5+DAPI+ OVA-EL4 cancer cells (OVA-EL4 cancer cells; 6 h, Data 3): 18.10
H5+DAPI- OVA-EL4 cancer cells (OVA-EL4 cancer cells; 6 h, Data 3): 0.076
H5-DAPI+ OVA-EL4 cancer cells (OVA-EL4 cancer cells; 6 h, Data 3): 0.07
